Source: publication PMC10987639 (2024)

Tests used:
[1] = test system: yjdF riboswitch aptamer domain from R. gauvreauii, P2a loop modified for Fab BL3-6 binding (crystallization construct) (RNA, riboswitch) GGACAAAGAUAAAAACACAACGUAUGGCGAAACACGUCAUACAGAUCCGGUAGGUAGUCCGGACAUAAACAGCGGUAUAAAGCGCUGUUUAUAAGUAACCUUCCUCCUUAGGUCGUCCAUUCUUUGUC; assay: X-ray crystallography (3.05 Å); settings: Mg2+ (PDB ligand; concentration not in material); co-crystal with Fab BL3-6, pH 7.5; ligand orientation ambiguous
[2] = test system: yjdF riboswitch aptamer domain from R. gauvreauii, P2a loop modified for Fab BL3-6 binding (crystallization construct) (RNA, riboswitch) GGACAAAGAUAAAAACACAACGUAUGGCGAAACACGUCAUACAGAUCCGGUAGGUAGUCCGGACAUAAACAGCGGUAUAAAGCGCUGUUUAUAAGUAACCUUCCUCCUUAGGUCGUCCAUUCUUUGUC; assay: X-ray crystallography (2.77 Å); settings: Mg2+, K+ (PDB ligands; concentrations not in material); co-crystal with Fab BL3-6, potassium osmate(VI) soak, pH 7.5; two ligand orientations

binding [1]	binding [2]	SMILES
yes		Nc1ccc2cc3ccc(N)cc3nc2c1
	yes	COc1ccc2c(c[n+](C)c3c4cc5c(cc4ccc23)OCO5)c1OC
